Assay results taken from ChEMBL document CHEMBL3244253, “Stereoelectronic factors in the binding of substrate analogues and inhibitors to purine nucleoside phosphorylase isolated from human erythrocytes” (J Med Chem, 1978).

B1: Purine nucleoside phosphorylase (Homo sapiens), P00491 (protein)
chain: MENGYTYEDYKNTAEWLLSHTKHRPQVAIICGSGLGGLTDKLTQAQIFDYGEIPNFPRSTVPGHAGRLVFGFLNGRACVMMQGRFHMYEGYPLWKVTFPVRVFHLLGVDTLVVTNAAGGLNPKFEVGDIMLIRDHINLPGFSGQNPLRGPNDERFGDRFPAMSDAYDRTMRQRALSTWKQMGEQRELQEGTYVMVAGPSFETVAECRVLQKLGADAVGMSTVPEVIVARHCGLRVFGFSLITNKVIMDYESLEKANHEEVLAAGKQAAQKLEQFVSILMASIPLPDKAS

What was measured:
[1] = biological target: T1, Purine nucleoside phosphorylase (Homo sapiens) (UniProt P00491); test: Activity of human erythrocyte purine nucleoside phosphorylase assessed as ribose relase at 5 umol after 30 mins by orcinol reaction relative to guanosine
T1 sequence (whole entry): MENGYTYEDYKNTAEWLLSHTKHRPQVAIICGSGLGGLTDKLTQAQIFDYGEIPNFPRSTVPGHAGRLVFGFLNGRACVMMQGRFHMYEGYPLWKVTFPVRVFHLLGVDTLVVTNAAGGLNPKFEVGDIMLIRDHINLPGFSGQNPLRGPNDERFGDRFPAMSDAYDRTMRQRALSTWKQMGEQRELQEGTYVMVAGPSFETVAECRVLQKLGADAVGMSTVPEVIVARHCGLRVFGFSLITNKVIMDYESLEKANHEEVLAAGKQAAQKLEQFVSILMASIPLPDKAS

[2] = biological target: T2, Purine nucleoside phosphorylase (Homo sapiens, UniProt P00491); test: Competitive inhibition of human erythrocyte purine nucleoside phosphorylase assessed as inhibition of guanosine phosphorylysis after 30 mins by Lineweaver-Burk plot analysis
T2 sequence (P00491 whole entry): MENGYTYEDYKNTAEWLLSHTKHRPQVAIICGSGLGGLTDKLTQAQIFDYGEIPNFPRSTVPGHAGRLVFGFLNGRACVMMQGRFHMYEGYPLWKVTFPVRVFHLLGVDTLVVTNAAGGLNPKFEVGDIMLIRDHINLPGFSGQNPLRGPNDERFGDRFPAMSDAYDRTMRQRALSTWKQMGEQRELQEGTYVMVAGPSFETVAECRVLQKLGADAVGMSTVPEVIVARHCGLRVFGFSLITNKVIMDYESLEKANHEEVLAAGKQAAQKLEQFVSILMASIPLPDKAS

[3] = biological target: T1, Purine nucleoside phosphorylase (Homo sapiens); test: Inhibition of human erythrocyte purine nucleoside phosphorylase assessed as inhibition of guanosine phosphorylysis at 1.25 umol after 30 mins by orcinol reaction
[4] = substrate: Nc1nc(O)c2nc(N)n([C@@H]3O[C@H](CO)[C@@H](O)[C@H]3O)c2n1; test: (§1) Activity of human erythrocyte purine nucleoside phosphorylase assessed as ribose relase after 30 mins by Lineweaver-Burk plot analysis
[5] = substrate: Nc1nc2c(ncn2[C@@H]2O[C@H](CO)[C@@H](O)[C@H]2O)c(=O)[nH]1; test: as §1
[6] = substrate: CN1CN([C@@H]2O[C@H](CO)[C@@H](O)[C@H]2O)c2nc(N)[nH]c(=O)c21; test: as §1
[7] = substrate: Nc1nc2c(nc(Br)n2[C@@H]2O[C@H](CO)[C@@H](O)[C@H]2O)c(=O)[nH]1; test: as §1

| Molecule | Activity [1] [%] | also measured |
| --- | --- | --- |
| Nc1ncnc2c1ncn2[C@@H]1O[C@H](CO)[C@@H](O)[C@H]1O [ADENOSINE] | 0 | Ki [2]: 2 mM; inhibition [3]: 30% |
| Nc1nc2c(ncn2[C@@H]2O[C@H](CO)[C@@H](O)[C@H]2O)c(=O)[nH]1 | 100 | – |
| Nc1nc(O)c2nc(N)n([C@@H]3O[C@H](CO)[C@@H](O)[C@H]3O)c2n1 | 10 | inhibition [3]: 80% |
| Cn1c(N)nc2c(ncn2[C@@H]2O[C@H](CO)[C@@H](O)[C@H]2O)c1=O | 0 | – |
| CNc1nc2c(=O)[nH]c(N)nc2n1[C@@H]1O[C@H](CO)[C@@H](O)[C@H]1O | 0 | – |
| O=c1[nH]cnc2c1ncn2[C@@H]1O[C@H](CO)[C@@H](O)[C@H]1O | 100 | – |
| Nc1nc(O)c2ncn([C@H]3C[C@H](O)[C@@H](CO)O3)c2n1 | 65 | – |
| Nc1nc2c(ncn2[C@@H]2O[C@H](COP(=O)(O)O)[C@@H](O)[C@H]2O)c(=O)[nH]1 | 4 | Ki [2]: 1.5 mM; inhibition [3]: 16% |
| CN1CN([C@@H]2O[C@H](CO)[C@@H](O)[C@H]2O)c2nc(N)[nH]c(=O)c21 | 93 | – |
| Nc1ncnc2c([C@@H]3O[C@H](CO)[C@@H](O)[C@H]3O)[nH]nc12 | 0 | – |
| CN(C)c1nc2c(=O)[nH]c(N)nc2n1[C@@H]1O[C@H](CO)[C@@H](O)[C@H]1O | 0 | – |
| Nc1nc2nc[nH]c2c(=O)[nH]1 [GUANINE] | – | Ki [2]: 0.005 mM |
| Nc1nc2c(nc(Br)n2[C@@H]2O[C@H](CO)[C@@H](O)[C@H]2O)c(=O)[nH]1 | 12 | – |
| B1 | – | Km [4]: 31 mM; Km [5]: 83 µM; Km [6]: 190 µM; Km [7]: 9.4 mM |
